Test results taken from patent publication US12440478B2, “Process for preparing a potent thiazole compound, pharmaceutical formulation and uses thereof” (AHAMMUNE BIOSCIENCES PRIVATE LIMITED, priority 2018, dated 2025).

Legend:
[1] = test system: NHEM, A375 melanoma, B16-F10 melanoma and NIH-3T3 fibroblasts; assay: Cytotoxicity as LDH release (Test 5); format: cell-based; settings: 24 hours treatment; FIG. 5
Protocol: NHEM (normal human […] melanocytes), A375 melanoma, B16-F10 melanoma and NIH-3T3 fibroblasts were seeded in 96 well plates for 24 hours. Cells were then treated with VC (DMSO, 0.1%) or with indicated concentrations of N-[2-[2-(4-chlorophenyl)-4-thiazolyl]ethyl]-butanamide for 24 hours. After incubation period, cytotoxicity was measured as % of total LDH released in the culture medium.

[2] = test system: cells that expressed a mutant form of rhodopsin; settings: mutant rhodopsin of autosomal dominant retinitis pigmentosa; protein misfolding and ER stress; cited from earlier work
B16-F10 cells [3] = assay: Tyrosinase activity with cocktail of inflammatory cytokines (Test 4); format: cell-based; settings: pre-treated 6 h, TNFα, IL1β, IFNγ 10 ng/ml each, 72 h; FIG. 4
Protocol: In FIG. 4—Cocktail of inflammatory cytokines—Inflammatory cytokines cause inflammation in the system and are implicated for the vitiligo pathology. The “cocktail of inflammatory cytokines” include tumour necrosis factor-alpha (TNFα), interleukin-1 beta (IL-1B) and interferon gamma (IFNγ) at a final concentration of 10 ng/ml each.
B16-F10 cells were seeded in 24-well plates (80000 cells per well) for 24 h. Cells were then treated with indicated concentrations of N-[2-[2-(4-chlorophenyl)-4-thiazolyl]ethyl]-butanamide. After 6 h of treatment with N-[2-[2-(4-chlorophenyl)-4-thiazolyl]ethyl]-butanamide, a cocktail of inflammatory cytokines (TNFα, IL1β, IFNγ—10 ng/ml each) was added to indicated wells. After 72 h of treatments, cells were washed with PBS and lysed in phosphate buffer (pH 6.8) containing 1 mM EDTA and 01% Triton X-100. Lysate was cleared by centrifugation (12000×g) for 10 min and clear lysate (20 μl) was used for tyrosinase assay. The final concentrations of tyrosinase assay mixture were as follows: phosphate buffer (50 mM, pH 6.8), L-DOPA (1 mM), MBTH (6 mM), DMF (2%). Tyrosinase activity led to the conversion of L-DOPA into dopachrome that binds to MBTH and forms a color complex which is read at 492 nm. Tyrosinase activity was normalized to total cellular proteins measured by Bradford's reagent and represented as % of vehicle control.

B16-F10 melanocytes = assay: MTT cell viability after tunicamycin-induced ER stress (Test 1); format: cell-based; settings: pre-treated 6 h, then 300 ng/ml tunicamycin, 72 h; FIG. 1
Protocol: B16-F10 melanocytes were seeded (5000 cells per well) in 96-well plates for 24 h. Cells were then treated in quadruplicate with indicated concentration of N-[2-[2-(4-chlorophenyl)-4-thiazolyl]ethyl]-butanamide for 6 h. All the compounds dilutions were made in DMSO and the concentration of the vehicle (DMSO) was kept constant (0.1%) in each well. Cells were then treated with 300 ng/ml tunicamycin to cause ER stress and after 72 h of treatment, cells were observed under microscope and images were captured. Then MTT assay was performed to measure the cell viability. Briefly, MTT (0.5 mg/ml) was added to each well and further incubated for 1 h. Culture medium was removed and the reduced MTT (formazen) was dissolved in DMSO (100 μl per well) and measured at 570 nm. Cell growth in vehicle control was calculated as 100% and the effect of the compounds were calculated accordingly.

obese-diabetic mouse = settings: multiple obese-diabetic mouse models; cited from earlier work
melanocytes = assay: Secreted melanin in cell culture supernatant (Test 3); format: cell-based; settings: 72 h, with tunicamycin; % of control; FIG. 3
Protocol: Cells were treated as indicated for 72 h. After incubation, cell culture supernatant was used for the estimation of secreted melanin. Secreted melanin was measured at 405 nm against cell culture medium as blank. Melanin levels were normalized to the total cellular proteins and represented as % of control.

B16-F10 cells [4] = assay: Tyrosinase activity with tunicamycin treatment (Test 2); format: cell-based; settings: pre-treated 6 h, tunicamycin 300 ng/ml, 72 h; % of vehicle control; FIG. 2
Protocol: B16-F10 cells were seeded in 24-well plates (20000 cells per well) for 24 h. Cells were then treated with indicated concentrations of N-[2-[2-(4-chlorophenyl)-4-thiazolyl]ethyl]-butanamide. After 6 h of treatment with N-[2-[2-(4-chlorophenyl)-4-thiazolyl]ethyl]-butanamide, tunicamycin (300 ng/ml) was added to the indicated wells. After 72 h of treatments, cells were washed with PBS and lysed in phosphate buffer (pH 6.8) containing 1 mM EDTA and 01% Triton X-100. Lysate was cleared by centrifugation (12000×g) for 10 min and clear lysate (20 μl) was used for tyrosinase assay. The final concentrations of tyrosinase assay mixture were as follows: phosphate buffer (50 mM, pH 6.8), L-DOPA (1 mM), MBTH (6 mM), DMF (2%). Tyrosinase activity was measured by measuring the colored complex formed at 492 nm. Tyrosinase activity was normalized to total cellular proteins measured by Bradford's reagent and represented as % of vehicle control.

black guinea pigs = assay: Animal model of vitiligo, topical application to ears (Test 6); format: in vivo, guinea pig; settings: 1% w/w topical formulation, 4 weeks, versus placebo treated ear; FIG. 6
Protocol: Topical formulation (1% w/w N-[2-[2-(4-chlorophenyl)-4-thiazolyl]ethyl]-butanamide) was prepared. Similarly, a placebo formulation was also prepared which was exactly similar to the N-[2-[2-(4-chlorophenyl)-4-thiazolyl]ethyl]-butanamide formulation except the active compound. The animal model of vitiligo was developed in black guinea pigs and the placebo and N-[2-[2-(4-chlorophenyl)-4-thiazolyl]ethyl]-butanamide formulations were applied on to the left and right ears respectively.

[5] = test system: ER (endoplasmic reticulum); settings: cited from earlier work

SMILES: CCCC(=O)NCCc1csc(-c2ccc(Cl)cc2)n1 [N-[2-[2-(4-chlorophenyl)-4-thiazolyl]ethyl]-butanamide]
- cytotoxicity (% of total LDH released) [1]: no cytotoxicity
- prevention of cell death [2]: effective in preventing the death of cells
- tyrosinase activity under inflammation (B16-F10 cells [3]): negates inflammation induced effect in melanocytes
- cell viability (MTT) (B16-F10 melanocytes): protects melanocytes from tunicamycin induced cell death in a dose dependent manner
- B-cell function (obese-diabetic mouse): improved
- glucose tolerance (obese-diabetic mouse): improved
- insulin sensitivity (obese-diabetic mouse): improved
- melanin secretion (melanin levels) (melanocytes): increases melanin levels and reverses the tunicamycin effect
- tyrosinase activity (B16-F10 cells [4]): increases tyrosinase activity and reverses the tunicamycin effect
- ear pigmentation (black guinea pigs): potency to cause repigmentation
- ER protein folding output [5]: increasing ER protein folding output
- chaperone expression [5]: chronically inducing chaperone expression
